Assay results from a melting point compilation (Tetko et al.; mined from patent text by program, amines drawn as free bases though some values may be those of a salt).

First: CCC1=NNC(C)=C(C(=O)OCc2ccccc2)C1c1cccc([N+](=O)[O-])c1 (stereo unspecified)
Second: CCOC(=O)C1=C(C)N(CCOC(=O)c2ccccc2)C(=O)NC1c1ccccc1 (stereo unspecified)
The melting point of the first is higher: 154 °C for the first, 129 °C for the second.

First: CNC(=O)NCCN1CCC(Nc2nc3ccccc3n2Cc2ccc(C)o2)CC1
Second: CC(=O)c1cc(Br)c(OCCCN2CCC(c3noc4cc(F)ccc34)CC2)c(Br)c1
The melting point of the first is higher: 200 °C for the first, 102 to 103 °C for the second.

Compared with Cc1cc2oc(=O)c3c(c2cc1N)CCN(CCN1CC2CCC(CC2)C1)C3, CC(C)(C)Nc1nc(NC(C)(C)C)nc(N2CC3CCC(CC3)C2)n1 is higher in melting point: 142 to 143 °C for the first, 217 to 222 °C for the second.

First: O=C(NCC1CCCCC1)NCC1CCCCC1
Second: O=C(CCC1CCCCC1)C1=C(O)COC1=O
The melting point of the first is higher: 150 to 152 °C for the first, 75 to 78 °C for the second.

First: COc1cc(C(=O)N(CCCC(=O)O)c2cccc3ccccc23)cc(OC)c1OC
Second: CCCc1c(OCCCCc2ccc3cc(OC)c(OC)cc3c2)ccc(C(=O)O)c1O
The melting point of the first is lower: 143 to 145 °C for the first, 147 to 148 °C for the second.

Compared with C=C(C)CSc1ccccc1S(=O)(=O)NC(C)(C)C, CC(C)(C)OC(=O)NCCN(CC(=O)O)C(=O)OCc1ccccc1 is lower in melting point: 104 to 107 °C for the first, 64.5 to 85 °C for the second.

First: CC1=CC(c2ccc(Cl)c(Cl)c2)C2=C(CCCC2=O)N1 (stereo unspecified)
Second: CCCCN(Cc1ccccc1)CC1CCc2c(C)cc3c(c2C1=O)CCC(=O)N3 (stereo unspecified)
The melting point of the first is higher: 199 to 201 °C for the first, 190 to 193 °C for the second.

First: CCc1cccc(C)c1CNc1cc(C(=O)O)cn2c(C)nnc12
Second: CCCCc1ncc(-c2cccc(C(=O)O)c2)n1Cc1ccccc1Cl
The melting point of the first is higher: 328 °C for the first, 200 to 202 °C for the second.

First: CCOC(=O)c1cn(C)nc1OCc1ccccc1
Second: COC1CN(c2ccc(NC(=O)OCc3ccccc3)cc2F)C1
The melting point of the first is lower: 66 to 67 °C for the first, 95 to 96.5 °C for the second.

Compared with CCCCCCCCCCCCSCCOc1ccc(CCC(=O)OC)cc1, CCCCCCCCCCCCCCCCC1CC(=O)N(NC(=O)CCc2cc(C(C)(C)C)c(O)c(C(C)(C)C)c2)C1=O (stereo unspecified) is higher in melting point: 48 °C for the first, 85 °C for the second.

First: O=C(O)c1ccccc1C(=O)c1cccc(NC(=O)c2ccn3c2CSC3c2cccnc2)c1 (stereo unspecified)
Second: O=C(Nc1cccc(Oc2ccccn2)c1)c1ccn2c1CSC2c1cccnc1 (stereo unspecified)
The melting point of the first is higher: 315 °C for the first, 132 °C for the second.

First: FCc1cccc(C#CCCn2ncc(-c3ccc(F)cc3)n2)n1
Second: COc1ccc(-n2nc(CO)cc2-c2ccc(C)cc2)cc1
The melting point of the first is lower: 84 to 86 °C for the first, 100 to 102 °C for the second.

Compared with NS(=O)(=O)c1cccc2cncn12, O=S(=O)(CC=C1CCCCC1)c1ccccc1 is lower in melting point: 148 to 151 °C for the first, 70 °C for the second.

First: O=CN1CCCN(C2=Nc3cc(Cl)ccc3Nc3ccccc32)CC1
Second: COc1ccc(C2=NN(C3CCN(C(=O)c4ccccc4OC)CC3)C(=O)C(C)(C)C2)cc1OC
The melting point of the first is lower: 152 to 155 °C for the first, 157 to 159 °C for the second.

First: COc1cc2c(cc1C)CCN=C2C1(c2ccco2)CC1
Second: Cc1ccccc1Oc1cccc2c1OC(=O)C2
The melting point of the first is lower: 98 to 100 °C for the first, 110 to 111 °C for the second.

First: CC(=O)N(C)N(C(=O)OC(C)(C)C)c1ccc(CO)cc1
Second: CC(C)(C)OC(=O)N1CCC(COc2ccc(C=NO)cc2)CC1
The melting point of the first is lower: 122 to 123 °C for the first, 140 to 142 °C for the second.

First: O=C1c2c(c(=O)n3nc(-c4ccccc4)cc3n2Cc2ccccc2)CN1Cc1ccccc1
Second: Oc1cccc(CCCc2cc(C(c3ccccc3)c3ccccc3)on2)c1
The melting point of the first is higher: 232 to 234 °C for the first, 114 to 117 °C for the second.

First: CN1CC(C(=O)CN2CCOCC2)CC2c3cccc4[nH]cc(c34)CC21 (stereo unspecified)
Second: O=S(=O)(N=CN1CCOCC1)c1nc(-c2ccccc2)ns1
The melting point of the first is lower: 178 to 180 °C for the first, 185 to 187 °C for the second.

First: C=CCOc1ccccc1/C=C\C(=O)O
Second: O=C(Cc1ccccc1Br)NC1CCC1
The melting point of the first is lower: 80 to 82 °C for the first, 159 to 161 °C for the second.

First: COC(=O)C1(Cl)C[C@H](OC(C)=O)[C@@H](NC(C)=O)[C@H]([C@H](OC(C)=O)[C@@H](COC(C)=O)OC(C)=O)O1 (stereo partly specified)
Second: CC(=O)OC1C(C)OC(OC(=N)C(Cl)(Cl)Cl)C(OC(C)=O)C1OC(C)=O (stereo unspecified)
The melting point of the first is higher: 116 to 118 °C for the first, 60 to 63 °C for the second.

Compared with O=CC1CC1(c1ccccc1)c1ccccc1 (stereo unspecified), CCOc1ccccc1N1C(=O)CC(N(O)c2ccccc2)C1=O (stereo unspecified) is higher in melting point: 71 to 73 °C for the first, 174 to 175 °C for the second.

First: O=C1N[C@H](Cc2cccc(OC(F)(F)C(F)F)c2)[C@H](c2ccc(Oc3ccccc3)cc2)O1 (racemic)
Second: N=C(Nc1cccc(NC(=O)/C=C/c2ccc(Cl)cc2)c1)c1ccccc1
The melting point of the first is lower: 90 to 91 °C for the first, 109 to 110 °C for the second.

Compared with COc1ccc(-c2cnc3[nH]cc(C(N)=O)c3n2)cc1OC, COc1ccc(C2=NN(c3ccc(CC(=O)O)cc3)C(=O)C(C)(C)C2)cc1OC is lower in melting point: 290 to 292 °C for the first, 186 to 188 °C for the second.

First: CNC(Cc1cc(Br)cc(Br)c1N)c1sccc1C (stereo unspecified)
Second: Cc1cc(O)nc2cc(Br)ccc12
The melting point of the first is lower: 141 to 143 °C for the first, 275 to 276 °C for the second.

First: CCC1(C)COP(=O)(Cc2ccc(N)cc2)OC1 (stereo unspecified)
Second: OC(=S)CCc1ccc(F)cc1
The melting point of the first is higher: 130 to 131 °C for the first, 68 to 69 °C for the second.

First: N#CN1CCC2(CC1)Oc1ccccc1C2n1cccc1 (stereo unspecified)
Second: O=C(Oc1ccccc1)N1Cc2ccccc2C2(Cc3ccccc3O2)C1 (stereo unspecified)
The melting point of the first is higher: 165 to 168 °C for the first, 128 °C for the second.

First: CCOC(=O)C=C1C(OC)CC1c1cccc(C2(c3ccc(OC(F)F)cc3)N=C(N)N(C)C2=O)c1 (stereo unspecified)
Second: COC(=O)c1ccc(Cn2c(=O)c(-c3c(Cl)cccc3Cl)cc3cnc(N)nc32)cc1
The melting point of the first is lower: 78 to 80 °C for the first, 235 to 237 °C for the second.

First: Oc1ccc(-c2cc3cc(O)cc(-c4nnco4)c3o2)cc1
Second: Nc1ccccc1-c1nc2cccnc2o1
The melting point of the first is higher: 260 to 266 °C for the first, 142 to 144 °C for the second.

First: Cc1nc2c3c(ccc2n1C)[C@H]1OCCO[C@@H]1[C@@H](c1ccccc1)O3
Second: Cc1nnc2n1-c1ccc(I)cc1C(c1ccccc1F)=NC2C (stereo unspecified)
The melting point of the first is higher: 307 °C for the first, 142 to 145 °C for the second.

First: CN(C)CCNC(=O)N1CCN(c2ccccc2)CC1
Second: COC(=O)C(Cl)C(Cl)c1ccccc1 (stereo unspecified)
The melting point of the first is lower: 88 to 90 °C for the first, 164 to 165 °C for the second.

First: OCC1CCc2cc(OCc3ccccc3)ccc2O1 (racemic)
Second: CCc1nc(NC(=O)c2cc(Br)ccc2O)sc1-c1ccccc1
The melting point of the first is lower: 80 to 82 °C for the first, 224 to 225 °C for the second.

First: CNC(=O)NCCSCc1csc(CN(C)C)n1
Second: CN(CCCCNC(=O)NCCSCc1csc(NC(=N)N)n1)CCOC(c1ccccc1)c1ccccc1
The melting point of the first is lower: 56 to 59 °C for the first, 101 °C for the second.

First: C=C1NC(NC(C)CC)=C(C(=O)OCC)C(NN)=C1C#N (stereo unspecified)
Second: Cc1nc(N2CCN(CC(C)C)C2=O)sc1C(=O)NCc1cnn(C)c1
The melting point of the first is lower: 120 to 121 °C for the first, 155 to 158 °C for the second.

Compared with CCCc1c(C(=O)C(C)C)c2ccc(C(N)=O)cc2n1Cc1ccccc1NC(C)=O, CCCc1c(OCCCOc2cccc(NC(=O)C(=O)OCC)c2)ccc(C(C)=O)c1O is lower in melting point: 235 to 236 °C for the first, 52 to 57 °C for the second.

First: O=C(Nc1ccc(C(F)(F)F)cc1)NC(Cc1ccc(C(F)(F)F)cc1)C(O)c1ccc(F)cc1 (stereo unspecified)
Second: COc1ccc(COc2cccnc2NC(=S)Nc2ccc(Cl)cc2)cc1
The melting point of the first is higher: 160 to 161 °C for the first, 136 to 138 °C for the second.

First: Fc1ccc(OCCCCCN2CCN(c3nccs3)CC2)cc1
Second: CC(=O)NC1(c2ccccc2)CCN(CC[C@@H](c2ccc(Cl)c(Cl)c2)[C@@H](O)c2ccnn2-c2ccccc2)CC1 (racemic)
The melting point of the first is lower: 42 to 44 °C for the first, 115 to 118 °C for the second.

Compared with Cc1c(O)cnn(C(C)(C)C)c1=O, Cc1c2c(c(Cc3ccc(C(C)C)cc3)c(C)c1NC(=O)NC(C)(C)C)OCC2 is lower in melting point: 236 to 239 °C for the first, 197 to 198 °C for the second.

First: CCCCCCNC(=O)Oc1cccc(NC(=O)CC(C)=O)c1
Second: CCOC(=O)CC(=O)Nc1ncc(Br)s1
The melting point of the first is lower: 125 °C for the first, 165 to 166 °C for the second.

First: COc1ccc(-n2c(-c3ccc(SC)cc3)nc(SC)c(C#N)c2=O)cc1
Second: COc1cccc(C(=O)c2cccc(F)c2)c1
The melting point of the first is higher: 214 to 216 °C for the first, 56 to 67 °C for the second.

COc1ccc2c(c1)c(C(C)=O)cn2C and COc1cc(Cc2cnc(N)nc2N)cc(OC(C)C(C)=O)c1OC (stereo unspecified) cannot be ordered by melting point: 167 to 168 °C for the first, 168 °C for the second.

First: CC(C)(C)OCOc1cc(NC(=O)NC(=O)c2ccc(C(N)=S)cc2)ccc1OCC(=O)OC(C)(C)C
Second: CO[C@@H](Cc1ccc(OCCc2nc(-c3cc(C)cc(C)c3)oc2C)c2ccccc12)C(=O)O
The melting point of the first is higher: 198 to 199 °C for the first, 197 to 198 °C for the second.

Compared with CC12CCC(=O)C=C1CCC(=Cc1cccs1)C2=O (stereo unspecified), CCc1cccc2c3c([nH]c12)C(CC)(CC(=O)O)OCC3=O (stereo unspecified) is higher in melting point: 107 °C for the first, 200 to 202 °C for the second.

First: CC(C)n1c(=O)n(CC#N)c2cc(-c3ncc(C(F)(F)F)cc3Cl)ccc21
Second: OC(CCCl)COc1cccc(C(F)(F)F)c1 (stereo unspecified)
The melting point of the first is higher: 158 to 159 °C for the first, 50 to 52 °C for the second.

Compared with CCCc1nc(C(=O)C(C)C)c(C#N)n1Cc1ccc(-c2ccccc2-c2nnnn2C(c2ccccc2)(c2ccccc2)c2ccccc2)cc1, CN1c2ccccc2Sc2cc(C=CC3(C=Cc4ccc5c(c4)Sc4ccccc4N5C)C=CC(c4ccccc4)=CC3)ccc21 (stereo unspecified) is higher in melting point: 133 to 134 °C for the first, 380 °C for the second.

First: N=C(N)NC(=O)Cn1c(Cc2cccs2)ccc1-c1ccccc1
Second: CCN(CC)C(=O)c1ccn2nc(-c3ccccc3)c(-c3ccc(=O)n(C(C)C)n3)c2c1
The melting point of the first is lower: 99 to 120 °C for the first, 157 to 158 °C for the second.

First: N#CNC(=S)Nc1cccc(Cl)c1
Second: CC1(C)OC(=S)Nc2ccc(-c3ccc(C#N)o3)cc21
The melting point of the first is higher: 258 to 260 °C for the first, 200 °C for the second.

Compared with NCC1(CC(=O)O)CCCCCC1, O=C(OC1CCCCC1)C(c1ccccc1)n1cnc2[nH]ncc2c1=S (stereo unspecified) is lower in melting point: 180 °C for the first, 170 to 173 °C for the second.

First: O=C(O)c1sc(-c2cccnc2)nc1C(F)(F)F
Second: OC1(C=Cc2ccc(-c3cccnc3)cc2)CN2CCC1CC2 (stereo unspecified)
The melting point of the first is higher: 209 °C for the first, 195 to 198 °C for the second.

First: COC1CCN(CC=CC(=O)Nc2cc3c(Nc4ccc(F)c(Cl)c4)ncnc3cc2OCC2CC2)CC1
Second: CCOC(=O)c1c2n(c3cc(N4CCN(Cc5oc(=O)oc5C)CC4)c(F)cc3c1=O)C(C)S2 (stereo unspecified)
The melting point of the first is lower: 129 to 130 °C for the first, 241 to 243 °C for the second.

First: CCC(=O)c1cc2c(c(Cl)c1O)OC(C(=O)O)C2 (stereo unspecified)
Second: CCN=C1SC2CCOc3ccc([N+](=O)[O-])cc3C2(O)N1CC (stereo unspecified)
The melting point of the first is higher: 227 to 229 °C for the first, 125 to 127 °C for the second.

Nc1nc2cc(Br)ccc2c2c1nc1n2CCCO1 gave a melting point of 273 to 276 °C.
